Assay [1] relates to Human rhinovirus sp. The experiment in a line: Compound was tested for minimum inhibitory concentration against human rhinovirus 14 (HRV14). The class given is functional.
In assay [2] the test system is Nucleic Acid. The experiment in a line: Compound was tested for the inhibition of Rev-RBE RNA complex formation. The class given is functional.

SMILES strings stand for the structures. In brackets after ≈: the same amount, converted by molar mass.

In assay [1], `Cc1cc(CCCCCCCOc2ccc(C3=NCCO3)cc2)on1` [DISOXARIL] yielded an MIC of 0.6 µM (≈ 0.205 µg/mL).

`Cc1cc(CCCCCOc2ccc(C3=NCCO3)cc2Cl)on1` came in with an MIC in assay [1] of 2.4 µM (≈ 0.837 µg/mL).

In turn, `Cc1cc(CCCCCOc2ccc(C3=NCCO3)cc2)on1` showed an MIC in assay [1] of 0.5 µM (≈ 0.157 µg/mL).

As to `NC[C@@H]1O[C@H](O[C@H]2[C@@H](O)[C@H](O[C@@H]3[C@@H](O)[C@H](N)C[C@H](N)[C@H]3O[C@H]3O[C@H](CN)[C@@H](O)[C@H](O)[C@H]3N)O[C@@H]2CO)[C@H](N)[C@@H](O)[C@@H]1O`, the MIC in assay [2] was 1 µM (≈ 0.615 µg/mL).

In assay [1], `CC[C@@H]1CN=C(c2ccc(OCCCCCCCc3cc(C)no3)cc2)O1` registered an MIC of 0.02 µM (≈ 0.00741 µg/mL).

In assay [2], `NC[C@H]1O[C@H](O[C@H]2[C@H](O)[C@@H](O)[C@H](N)C[C@@H]2N)[C@H](N)[C@@H](O)[C@@H]1O` had an MIC greater than 100 µM.

In the case of `NC[C@@H]1O[C@H](O[C@H]2[C@@H](O)[C@H](O[C@@H]3[C@@H](O)[C@H](N)C[C@H](N)[C@H]3O[C@H]3O[C@H](CO)[C@@H](O)[C@H](O)[C@H]3N)O[C@@H]2CO)[C@H](N)[C@@H](O)[C@@H]1O`, the MIC in assay [2] is greater than 100 µM.

Regarding `NC[C@@H]1O[C@@H](O[C@H]2[C@H](O)[C@@H](O[C@H]3O[C@H](CO)[C@@H](O)[C@H](N)[C@H]3O)[C@H](N)C[C@@H]2N)[C@@H](O)[C@H](O)[C@H]1O`, in assay [2], the MIC is greater than 100 µM.

For `NC[C@H]1O[C@H](O[C@H]2[C@H](O)[C@@H](O[C@H]3O[C@H](CO)[C@@H](O)[C@H](N)[C@H]3O)[C@H](N)C[C@@H]2N)[C@H](N)[C@@H](O)[C@@H]1O`, the MIC in assay [2] is 100 µM (≈ 48.4 µg/mL).

Regarding `NC[C@H]1O[C@H](O[C@H]2[C@H](O[C@@H]3O[C@H](CO)[C@@H](O)[C@H]3O)[C@@H](O)[C@H](N)C[C@@H]2N)[C@H](N)[C@@H](O)[C@@H]1O`, in assay [2], the MIC is 100 µM (≈ 45.4 µg/mL).

`CN[C@@H]1[C@@H](O)[C@@H](O[C@@H]2[C@@H](O)[C@H](O[C@H]3OC(CN)=CC[C@H]3N)[C@@H](N)C[C@H]2N)OC[C@]1(C)O` showed an MIC in assay [2] greater than 100 µM.

With `Cc1cc(CCCCCCCOc2ccc(C3=NC[C@H](C)O3)cc2)on1`, in assay [1], the MIC was determined as 0.4 µM (≈ 0.143 µg/mL).

Consider `NC[C@H]1O[C@H](O[C@H]2[C@H](O)[C@@H](O[C@H]3O[C@H](CO)[C@@H](O)[C@H](N)[C@H]3O)[C@H](N)C[C@@H]2N)[C@H](N)C[C@@H]1O`, for which the MIC in assay [2] is 10 µM (≈ 4.68 µg/mL).

Consider `Cc1cc(CCCCCOc2ccc(C3=NC[C@@H](C)O3)cc2)on1`, for which the MIC in assay [1] was 0.6 µM (≈ 0.197 µg/mL).

Regarding `Cc1cc(CCCCCCCOc2ccc(C3=NC[C@@H](C)O3)cc2Cl)on1`, the MIC in assay [1] was 0.2 µM (≈ 0.0782 µg/mL).

Molecule `NC[C@@H]1O[C@H](O[C@H]2[C@@H](O)[C@H](O[C@@H]3[C@@H](O)[C@H](N)C[C@H](N)[C@H]3O[C@H]3O[C@H](CO)[C@@H](O)C[C@H]3N)O[C@@H]2CO)[C@H](N)[C@@H](O)[C@@H]1O[C@H]1O[C@H](CO)[C@@H](O)[C@H](O)[C@@H]1O` returned an MIC in assay [2] of 10 µM (≈ 7.62 µg/mL).

`Cc1cc(CCCCCCCOc2ccc(C3=NC[C@@H](C)O3)cc2)on1` gave an MIC in assay [1] of 0.03 µM (≈ 0.0107 µg/mL).

Turning to `CNC1C(O)C(OC2C(N)CC(N)C(OC3OC(CN)CCC3N)C2O)OCC1(C)O` (stereo not drawn), the MIC in assay [2] amounted to 100 µM (≈ 45 µg/mL).

Source of the values: ChEMBL document CHEMBL1131109, “Modeling RNA-ligand interactions: the Rev-binding element RNA-aminoglycoside complex” (1998).
